This passage reports EC50 results from US8017629B2, “Compounds and uses thereof in modulating amyloid β” (Neurogenetic Pharmaceuticals, Inc., priority 2003, dated 2011).

The test system of this assay is Aβ42 levels in the extracellular medium. As to the kind of experiment: FRET (HTRF) assay, Aβ42 level of the extracellular medium of SH-SY5Y-APP cells. The class given is cell-based. The following applies: Homo sapiens, concentration at which reduction of Aβ42 level was half of the maximum reduction, read-out: Ab42 Potency. Here is the method: Compounds were evaluated for activity in modulating Aβ42 and Aβ40 levels in the extracellular medium using a homogeneous time-resolved fluorescence (HTRF) assay as follows.
For the HTRF assay, either 5 or 10 μl of supernatant from treated cells was added to 10 or 15 μl of labeled antibody pairs, for a total volume of 20 μl, and incubated for 20-24 hours at 4° C. The labeled antibody pairs were either 8000 pg B436-XL665 and 400 pg B113 Europium, for assessing Aβ40 levels, or 8000 pg B436-XL665 and 400 pg A387 Europium, for assessing Aβ42 levels, diluted in 50 mM NaPO4, 0.2% BSA, 0.5M KF, pH 7. The fluorescence was read on a BMG Rubystar at 620 nm and 665 nm.
Take `CCN(CCOC)c1ccc(Nc2nc(-c3ccc(-n4cnc(C)c4)cc3)cs2)c(C)c1` [Compound 231]: the EC50 fell in the range of 0.2 to 1 µM.

Take `CCN(CCOC)c1ccc(Nc2nc(-c3ccc(-n4cnc(C)c4)cc3C(F)(F)F)cs2)c(C)c1` [Compound 232]: the EC50 is 5.1 to 10 µM.

On to `NC(=O)c1ncn(-c2ccc(-c3csc(Nc4ccc(N5CCOCC5)c(Cl)c4)n3)cc2)n1` [Compound 233], for which the EC50 fell in the range of 1.1 to 5 µM.

On to `CCc1cccc(Nc2nc(-c3ccc(N4CCN(C)CC4)cc3)cs2)c1` [Compound 234], for which the EC50 lay within 1.1 to 5 µM.

`Cc1cn(-c2ccc(-c3csc(Nc4cc(C)c(C)cc4C)n3)cc2)cn1` [Compound 235]: the EC50 fell in the range of 0.2 to 1 µM.

Regarding `Cc1cc(C)c(Nc2nc(-c3ccc(-n4cnc(Br)c4)cc3)cs2)cc1C` [Compound 236], the EC50 was 0.2 to 1 µM.

Turning to `Cc1cn(-c2ccc(-c3csc(Nc4cc(Cl)c(Cl)cc4Cl)n3)cc2)cn1` [Compound 237], the EC50 was in the range of 0.2 to 1 µM.

Consider `Cc1cn(-c2ccc(-c3csc(Nc4c(Cl)cc(Cl)cc4Cl)n3)cc2)cn1` [Compound 238], for which the EC50 lay in the range of 1.1 to 5 µM.

`CCc1cc(N2CCOCC2)ccc1Nc1nc(-c2ccc(-n3ccnc3)cc2)cs1` [Compound 239]: the EC50 was in the range of 1.1 to 5 µM.

For the compound `CCc1cc(N2CCN(C)CC2)ccc1Nc1nc(-c2ccc(-n3ccnc3)cc2)cs1` [Compound 240], the EC50 was in the range of 1.1 to 5 µM.

`CCc1cc(N(CC)CC)ccc1Nc1nc(-c2ccc(-n3ccnc3)cc2)cs1` [Compound 241]: the EC50 is 1.1 to 5 µM.

On to `Cc1cn(-c2ccc(-c3nc(Nc4cc(C)c(C)cc4C)sc3C)cc2)cn1` [Compound 242], for which the EC50 was in the range of 0.2 to 1 µM.

With `Cc1cn(-c2ccc(-c3nc(Nc4cc(C)c(C)cc4C)sc3C)cc2Br)cn1` [Compound 243], the EC50 was in the range of 1.1 to 5 µM.

`Cc1cc(C)c(Nc2nc(-c3ccc(-n4nccn4)cc3)cs2)cc1C` [Compound 244]: the EC50 fell in the range of 1.1 to 5 µM.

`Cc1cn(-c2ccc(-c3nc(Nc4cc(Cl)c(Cl)cc4Cl)sc3C)cc2)cn1` [Compound 245]: the EC50 was in the range of 1.1 to 5 µM.

With `Cc1cnn(-c2ccc(-c3nc(Nc4c(Cl)cc(Cl)cc4Cl)sc3C)cc2)c1` [Compound 246], the EC50 was in the range of 1.1 to 5 µM.

For the compound `CCN(CC)c1ccc(Nc2nc(-c3ccc(-n4cnc(C)c4)nc3)cs2)c(C)c1` [Compound 247], the EC50 was below 0.2 µM.

On to `CCN(CC)c1ccc(Nc2nc(-c3ccc(-c4c[nH]c(C)n4)cc3)cs2)c(C)c1` [Compound 248], for which the EC50 lay in the range of 5.1 to 10 µM.

In the case of `CCN(CC)c1ccc(Nc2nc(-c3ccc(-n4cc(C)nc4C)cc3)cs2)c(C)c1` [Compound 249], the EC50 is 1.1 to 5 µM.

As for `Cc1cc(C)c(Nc2nc(-c3ccc(-n4cnc(C)c4)cc3)cs2)c(C)c1` [Compound 250], the EC50 was in the range of 0.2 to 1 µM.

For `Cc1cc(C)c(Nc2nc(-c3ccc(-n4cnc(Br)c4)cc3)cs2)c(C)c1` [Compound 251], the EC50 fell in the range of 1.1 to 5 µM.

On to `Cc1ccc(N2CCCCC2)cc1Nc1nc(-c2ccc(-n3ccnc3)cc2)cs1` [Compound 252], for which the EC50 fell in the range of 1.1 to 5 µM.

With `Cc1ccc(N2CCOCC2)cc1Nc1nc(-c2ccc(-n3ccnc3)cc2)cs1` [Compound 253], the EC50 was 0.2 to 1 µM.

Take `Cc1ccc(N2CCSCC2)cc1Nc1nc(-c2ccc(-n3ccnc3)cc2)cs1` [Compound 254]: the EC50 lay in the range of 0.2 to 1 µM.

In the case of `Cc1ccc(N2CCN(C)CC2)cc1Nc1nc(-c2ccc(-n3ccnc3)cc2)cs1` [Compound 255], the EC50 lay in the range of 0.2 to 1 µM.

For the compound `Cc1ccc(NCC2CCN(C)CC2)cc1Nc1nc(-c2ccc(-n3ccnc3)cc2)cs1` [Compound 256], the EC50 was in the range of 1.1 to 5 µM.

In the case of `CCc1ccc(C)nc1Nc1ccc(C)c(Nc2nc(-c3ccc(-n4ccnc4)cc3)cs2)c1` [Compound 257], the EC50 is 5.1 to 10 µM.

With `CNCCN(C)c1ccc(C)c(Nc2nc(-c3ccc(-n4ccnc4)cc3)cs2)c1` [Compound 258], the EC50 is 1.1 to 5 µM.

As for `Cc1ccc(N(C)C)cc1Nc1nc(-c2ccc(-n3ccnc3)cc2)cs1` [Compound 259], the EC50 lay in the range of 0.2 to 1 µM.

Regarding `Cc1cn(-c2ccc(-c3csc(Nc4ccc(N5CC(C)OC(C)C5)cc4)n3)cc2)cn1` (centres unmarked) [Compound 260], the EC50 lay within 1.1 to 5 µM.

With `CCN(CCOC)c1ccc(Nc2nc(-c3ccc(-n4cnc(C)c4)nc3)cs2)c(C)c1` [Compound 261], the EC50 lay within 0.2 to 1 µM.

With `Cc1cn(-c2ccc(-c3csc(Nc4cc(C)c(C)cc4C)n3)cn2)cn1` [Compound 262], the EC50 was 0.2 to 1 µM.

As to `COc1cc(-n2cnc(C)c2)ccc1-c1csc(Nc2cc(C)c(C)cc2C)n1` [Compound 263], the EC50 is 0.2 to 1 µM.

Regarding `COc1ccc(OC)c(Nc2nc(-c3ccc(-n4cnc(C)c4)cc3)cs2)c1` [Compound 264], the EC50 lay within 0.2 to 1 µM.

For `CCN(CC)c1ccc(C)c(Nc2nc(-c3ccc(-n4ccnc4)cc3)cs2)c1` [Compound 265], the EC50 is below 0.2 µM.

`CSc1cccc(Nc2nc(-c3ccc(-n4cnc(Br)c4)cc3)cs2)c1` [Compound 266]: the EC50 lay within 5.1 to 10 µM.

Turning to `COc1cc(C)c(Nc2nc(-c3ccc(-n4cnc(C)c4)cc3)cs2)cc1OC` [Compound 267], the EC50 lay in the range of 1.1 to 5 µM.

As to `CCN(CC)c1ccc(C)c(Nc2nc(-c3ccc(-n4cnc(C)c4)cc3)cs2)c1` [Compound 268], the EC50 was below 0.2 µM.

Take `Cc1cn(-c2ccc(-c3csc(Nc4cc(C)c(O)cc4C)n3)cc2)cn1` [Compound 269]: the EC50 is 5.1 to 10 µM.

Regarding `CCN(CC)c1ccc(C)c(Nc2nc(-c3ccc(-n4cnc(C)c4)nc3)cs2)c1` [Compound 270], the EC50 is below 0.2 µM.

For `CCOc1cc(C)c(Nc2nc(-c3ccc(-n4cnc(C)c4)cc3)cs2)cc1C` [Compound 271], the EC50 was below 0.2 µM.

`CCc1cn(-c2ccc(-c3csc(Nc4ccc(N(CC)CC)cc4C)n3)cc2)cn1` [Compound 272]: the EC50 lay in the range of 0.2 to 1 µM.

`CCN(CC)c1ccc(N(CC)c2nc(-c3ccc(-n4cnc(C)c4)cc3)cs2)c(C)c1` [Compound 273]: the EC50 lay in the range of 0.2 to 1 µM.

For the compound `CCN(CC)c1ccc(Nc2nc(-c3ccc(-n4cc(C(C)=O)nn4)cc3)cs2)c(C)c1` [Compound 274], the EC50 fell in the range of 1.1 to 5 µM.

For the compound `CCN(CC)c1ccc(Nc2nc(-c3ccc(-n4cc(C(C)O)nn4)cc3)cs2)c(C)c1` (centres unmarked) [Compound 275], the EC50 is 1.1 to 5 µM.

For `Cc1cn(-c2ccc(-c3csc(Nc4cc(N5CCOCC5)ccc4C)n3)cn2)cn1` [Compound 276], the EC50 is below 0.2 µM.

For `Cc1cn(-c2ccc(-c3csc(Nc4cc(-n5cccc5)ccc4C)n3)cn2)cn1` [Compound 277], the EC50 was below 0.2 µM.

For the compound `Cc1cn(-c2ccc(-c3nc(Nc4cc(-n5cccc5)ccc4C)sc3C)cc2)cn1` [Compound 278], the EC50 lay within 0.2 to 1 µM.

In the case of `Cc1ccc(-n2cccc2)cc1Nc1nc(-c2ccc(-n3cnc(Br)c3)cc2)cs1` [Compound 279], the EC50 lay in the range of 0.2 to 1 µM.

As for `Cc1cn(-c2ccc(-c3csc(Nc4cc(C)c(OCC5CC5)cc4C)n3)cc2)cn1` [Compound 280], the EC50 is below 0.2 µM.

Take `Cc1cn(-c2ccc(-c3csc(Nc4cc(N5CCSCC5)ccc4C)n3)cn2)cn1` [Compound 281]: the EC50 was below 0.2 µM.

With `Cc1cn(-c2ccc(-c3csc(Nc4cc(N(C)C)ccc4C)n3)cn2)cn1` [Compound 282], the EC50 is below 0.2 µM.

For the compound `Cc1cn(-c2ccc(-c3csc(Nc4cc(N5CCCCC5)ccc4C)n3)cn2)cn1` [Compound 283], the EC50 was below 0.2 µM.

With `CCCN(CC)c1ccc(C)c(Nc2nc(-c3ccc(-n4cnc(C)c4)nc3)cs2)c1` [Compound 284], the EC50 is below 0.2 µM.

Turning to `CCN(CC)c1cc(C)c(Nc2nc(-c3ccc(-n4cnc(C)c4)cc3)cs2)cc1C` [Compound 285], the EC50 was below 0.2 µM.

In the case of `CCN(CC)c1cc(C)c(Nc2nc(-c3ccc(-n4cnc(C)c4)nc3)cs2)cc1C` [Compound 286], the EC50 was below 0.2 µM.

Take `CCOc1cc(C)c(Nc2nc(-c3ccc(-n4cnc(C)c4)nc3)cs2)cc1C` [Compound 287]: the EC50 was below 0.2 µM.

Take `CCN(CC)c1cc(Nc2nc(-c3ccc(-n4cnc(C)c4)cc3)cs2)c(C)cc1C` [Compound 288]: the EC50 is below 0.2 µM.

On to `CCN(CC)c1cc(Nc2nc(-c3ccc(-n4cnc(C)c4)nc3)cs2)c(C)cc1C` [Compound 289], for which the EC50 was below 0.2 µM.

Turning to `CCOc1cc(C)c(Nc2nc(-c3ccc(-n4ccnc4)cc3)cs2)cc1C` [Compound 290], the EC50 was below 0.2 µM.

On to `CCN(CC)c1cc(Nc2nc(-c3ccc(-n4ccnc4)cc3)cs2)c(C)cc1C` [Compound 291], for which the EC50 is below 0.2 µM.

As to `CCN(CC)c1cc(C)c(Nc2nc(-c3ccc(-n4ccnc4)cc3)cs2)cc1C` [Compound 292], the EC50 is below 0.2 µM.

Consider `Cc1cn(-c2ccc(-c3csc(Nc4cc(-n5cccc5)ccc4C)n3)cc2)cn1` [Compound 293], for which the EC50 lay within 0.2 to 1 µM.

In the case of `COc1cc(C)c(Nc2nc(-c3ccc(-n4ccnc4)cc3)cs2)cc1C(C)C` [Compound 294], the EC50 was below 0.2 µM.

For the compound `COc1cc(C)c(Nc2nc(-c3ccc(-n4cnc(C)c4)cc3)cs2)cc1C(C)C` [Compound 295], the EC50 was below 0.2 µM.

Consider `COc1cc(C)c(Nc2nc(-c3ccc(-n4cnc(C)c4)nc3)cs2)cc1C(C)C` [Compound 296], for which the EC50 is below 0.2 µM.

With `COc1cc(C)c(Nc2nc(-c3ccc(-n4cnc(C)c4)cc3)c(C)s2)cc1C(C)C` [Compound 297], the EC50 is below 0.2 µM.

As to `Cc1ccc(CO)cc1Nc1nc(-c2ccc(-n3ccnc3)cc2)cs1` [Compound 298], the EC50 fell in the range of 0.2 to 1 µM.

With `Cc1cn(-c2ccc(-c3csc(Nc4cc(CO)ccc4C)n3)cc2)cn1` [Compound 299], the EC50 lay in the range of 0.2 to 1 µM.

On to `Cc1cn(-c2ccc(-c3csc(Nc4cc(CO)ccc4C)n3)cn2)cn1` [Compound 300], for which the EC50 fell in the range of 0.2 to 1 µM.

Take `Cc1ccc(CO)cc1Nc1nc(-c2ccc(-n3cnc(Br)c3)cc2)cs1` [Compound 301]: the EC50 is 0.2 to 1 µM.
